The results in this text go back to paper PMC3804614, “Transient Receptor Potential Channels Encode Volatile Chemicals Sensed by Rat Trigeminal Ganglion Neurons” (PLoS ONE, 2013).

Holding throughout (format): cell-based
One assay addresses T1, rTRPV1 (Rattus norvegicus, UniProt O35433).
T1 construct: gene Trpv1
The assay is described as follows: whole-cell voltage clamp, CHO cells expressing rTRPV1; block of odorant-evoked currents.

For a further assay, the target named is T2, rTRPA1 (Rattus norvegicus, UniProt Q6RI86).
T2 construct: gene Trpa1
T2 sequence (Q6RI86 whole entry): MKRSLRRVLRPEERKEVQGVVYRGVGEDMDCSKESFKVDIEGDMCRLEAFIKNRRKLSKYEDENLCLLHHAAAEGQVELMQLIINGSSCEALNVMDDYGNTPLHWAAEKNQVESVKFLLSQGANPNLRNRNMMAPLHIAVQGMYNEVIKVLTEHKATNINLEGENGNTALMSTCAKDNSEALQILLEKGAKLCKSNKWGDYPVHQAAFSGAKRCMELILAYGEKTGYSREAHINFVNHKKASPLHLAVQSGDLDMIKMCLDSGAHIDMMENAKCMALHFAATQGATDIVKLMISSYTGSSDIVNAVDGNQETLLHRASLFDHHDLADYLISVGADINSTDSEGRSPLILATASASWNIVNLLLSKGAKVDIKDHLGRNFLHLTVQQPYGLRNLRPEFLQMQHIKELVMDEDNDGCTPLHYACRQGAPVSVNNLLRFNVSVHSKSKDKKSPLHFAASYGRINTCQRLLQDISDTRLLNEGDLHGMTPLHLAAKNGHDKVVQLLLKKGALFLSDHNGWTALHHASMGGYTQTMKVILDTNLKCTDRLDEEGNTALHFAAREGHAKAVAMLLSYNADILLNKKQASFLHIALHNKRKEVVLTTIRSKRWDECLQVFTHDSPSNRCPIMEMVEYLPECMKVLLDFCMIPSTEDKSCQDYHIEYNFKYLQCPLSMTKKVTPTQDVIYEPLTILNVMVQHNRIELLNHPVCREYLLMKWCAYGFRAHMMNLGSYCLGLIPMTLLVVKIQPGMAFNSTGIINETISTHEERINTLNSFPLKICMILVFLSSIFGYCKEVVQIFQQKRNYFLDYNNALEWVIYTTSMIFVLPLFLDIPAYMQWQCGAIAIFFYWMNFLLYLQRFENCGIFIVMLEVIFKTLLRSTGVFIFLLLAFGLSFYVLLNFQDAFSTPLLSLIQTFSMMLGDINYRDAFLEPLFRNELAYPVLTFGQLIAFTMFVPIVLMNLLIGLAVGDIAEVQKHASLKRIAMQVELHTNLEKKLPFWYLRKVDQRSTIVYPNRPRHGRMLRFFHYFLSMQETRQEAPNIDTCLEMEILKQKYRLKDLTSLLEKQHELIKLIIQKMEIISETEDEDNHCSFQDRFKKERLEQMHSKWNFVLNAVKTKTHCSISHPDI
Put plainly: whole-cell voltage clamp, CHO cells expressing rTRPA1; block of odorant-evoked currents.

The target of the next assay is rTASK1 (K2P3, KCNK3) (Rattus norvegicus, UniProt O54912). The assay is described as follows: two-electrode voltage clamp, Xenopus oocytes expressing rTASK1, dose-response. (In general: In two-electrode clamp one electrode senses voltage and the other passes current.)
Sequence of rTASK1 (K2P3, KCNK3) (O54912 whole entry): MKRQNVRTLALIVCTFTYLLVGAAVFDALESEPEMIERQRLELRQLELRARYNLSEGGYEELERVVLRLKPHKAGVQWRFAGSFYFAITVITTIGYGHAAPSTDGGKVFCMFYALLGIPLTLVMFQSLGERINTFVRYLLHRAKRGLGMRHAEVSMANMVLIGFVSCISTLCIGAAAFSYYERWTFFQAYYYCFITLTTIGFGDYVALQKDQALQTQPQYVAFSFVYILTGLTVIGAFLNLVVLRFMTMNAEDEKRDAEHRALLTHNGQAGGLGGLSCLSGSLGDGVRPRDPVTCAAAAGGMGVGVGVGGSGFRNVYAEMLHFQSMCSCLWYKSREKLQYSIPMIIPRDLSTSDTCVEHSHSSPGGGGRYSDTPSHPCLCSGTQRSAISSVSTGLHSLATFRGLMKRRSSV

Where two headings read alike, the source gives them in different places.

T1 sequence (O35433 whole entry): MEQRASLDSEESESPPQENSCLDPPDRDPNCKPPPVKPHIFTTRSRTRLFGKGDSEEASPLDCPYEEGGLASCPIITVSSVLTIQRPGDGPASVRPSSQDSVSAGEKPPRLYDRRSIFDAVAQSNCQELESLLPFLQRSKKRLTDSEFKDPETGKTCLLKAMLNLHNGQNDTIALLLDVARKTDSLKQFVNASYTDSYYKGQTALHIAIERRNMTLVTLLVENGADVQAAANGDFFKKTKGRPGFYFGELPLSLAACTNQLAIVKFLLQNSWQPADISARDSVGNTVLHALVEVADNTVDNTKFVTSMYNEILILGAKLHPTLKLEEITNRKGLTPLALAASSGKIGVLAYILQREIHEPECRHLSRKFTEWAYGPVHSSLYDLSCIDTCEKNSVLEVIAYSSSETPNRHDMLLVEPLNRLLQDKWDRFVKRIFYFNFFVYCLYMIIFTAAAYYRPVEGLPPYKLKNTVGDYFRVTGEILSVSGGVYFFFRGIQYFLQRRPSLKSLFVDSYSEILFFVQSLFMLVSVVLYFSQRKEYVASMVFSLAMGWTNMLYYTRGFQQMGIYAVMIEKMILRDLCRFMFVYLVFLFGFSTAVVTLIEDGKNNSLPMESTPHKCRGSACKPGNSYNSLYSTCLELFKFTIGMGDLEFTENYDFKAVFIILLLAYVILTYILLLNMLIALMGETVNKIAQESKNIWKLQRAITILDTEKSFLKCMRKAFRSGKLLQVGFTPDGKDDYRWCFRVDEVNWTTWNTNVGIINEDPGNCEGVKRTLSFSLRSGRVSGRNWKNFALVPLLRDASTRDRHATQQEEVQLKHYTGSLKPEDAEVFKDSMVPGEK

As for `Oc1cc2c(cc1O)CN(C(=S)NCCc1ccc(Cl)cc1)CCC2` [CPZ, capsazepine], the “whole-cell voltage clamp, CHO cells expressing rTRPV1; block of odorant-evoked c” value at rTRPV1 was “Co-administration of CPZ nearly completely inhibited all odorant-evoked outward currents”. With `CC(C)c1ccc(NC(=O)Cn2cnc3c2c(=O)n(C)c(=O)n3C)cc1` [HC, HC-030031], the “whole-cell voltage clamp, CHO cells expressing rTRPA1; block of odorant-evoked c” value at rTRPA1 is “Co-administration of HC nearly completely inhibited vanillin- and HTPA-evoked outward and inward currents”. On to `CC(C)=CCC/C(C)=C/CO` [geraniol], for which, at rTASK1 (K2P3, KCNK3) (read-out: IC50), the concentration for half-maximal inhibition (IC50) (usually the midpoint of a concentration-inhibition curve) was 580 ± 90 µM.

As to `CC(=O)CCc1ccc2c(c1)OCO2` [heliotropyl acetone], the IC50 at rTASK1 (K2P3, KCNK3) came out at 890 ± 120 µM.
